Laboratory results: patent publication US20180221343A1, “PHARMACEUTICAL COMPOSITION FOR PREVENTING OR TREATING MACULAR DEGENERATION” (KOREA RESEARCH INSTITUTE OF CHEMICAL TECHNOLOGY, priority 2011, published 2018)

Legend:
VEGF receptor 2 (FLK-1) = experiment: Expression of VEGF receptor 2 (FLK-1) in corneal tissue by RT-PCR; format: in vivo, rats; conditions: subconjunctival injection 20 μl; KR 0.3 mg/ml, Avastin 10 mg/ml
Experimental: The tests were performed for confirming corneal angiogenesis as a marker. To a Trizole™ solution (200 μl), were added each corneal tissue obtained from the rats of Example 1. Total RNAs were isolated and then cDNAs were prepared by using a reverse transcriptase. Each cDNA (5 μl) was mixed with the primer set of FLK-1 and then PCR amplication was performed in a thermocycler under the following conditions; denaturation at 94° C. for 5 minutes, and then 35 cycles of denaturation at 94° C. for 20 seconds, annealing at 58° C. for 1 minute, and extension at 72° C. for 25 seconds. Each PCR product was loaded on 1% agarose gel; and the resulting ethidium bromide fluorescent bands were identified.

retinal angiogenesis = experiment: Laser-induced retinal damage model, retinal angiogenesis by dextran-FITC fluorescence; format: in vivo, Brown Norway rats; conditions: 2 weeks after administration
Experimental: The tests were performed by using Brown Norway rats (8 weeks old, male) as animals having retinal damage (15 rats for the experiment group; and 1 rat for normal group, respectively). The retinal Bruch's membrane of each Brown Norway rat was damaged using a Zeiss 532s laser at the intensity of […], 30 ms. On the third day after the laser-damaging, the drug was administered into the vitreous humor in order to observe the retinal vessels. The compound of the present invention, i.e., (2R,3R,4S)-6-amino-4-[N-(4-chlorophenyl)-N-(1H-imidazol-2-ylmethyl)amino]-3-hydroxy-2-methyl-2-dimethoxymethyl-3,4-dihydro-2H-1-benzopyran was administered with the solutions (10 μl of each solution) obtained by dissolving in PBS containing 30% PEG 400 and 10% DMSO, in the concentrations of 0.1 mg/ml and 0.3 mg/ml. Avastin was administered with the solution (10 μl) obtained by dissolving in PBS in the concentration of 2.5 mg/ml. In case of the control group, the PBS (10 μl) was administered. In addition, (2R,3R,4S)-6-amino-4-[N-(4-chlorophenyl)-N-(1H-imidazol-2-ylmethyl)amino]-3-hydroxy-2-methyl-2-dimethoxymethyl-3,4-dihydro-2H-1-benzopyran was intraperitoneally administered with the solution obtained by dissolving in PBS containing 30% PEG 400 and 10% DMSO, in the dose of 25 mg/kg. 2 weeks after the drug administrations, dextran-FITC was injected into the left ventricle in the dose of 25 mg/kg, followed by enucleating the eye after 5 minutes therefrom; and then fixing in a 10% formalin solution. The cornea and the eye lens were removed from the fixed eye, which was then observed under a fluorescence microscope. Angiogenesis was identified by the intensity and leakage of dextran-FITC in the laser-induced damage site; and the results thereof were shown in FIG. 7. The evaluations quantifying the photographs of FIG. 7 were performed by using the Image J (NIH, USA) program and the results thereof were shown in FIG. 8.

[1] = Retinal delivery of eye drop formulation (levels in ocular tissues and plasma); format: in vivo, Rats; conditions: eye drop 50 μl of Formulation Example 1
Experimental: We evaluated whether the eye drop formulation containing (2R,3R,4S)-6-amino-4-[N-(4-chlorophenyl)-N-(1H-imidazol-2-ylmethyl)amino]-3-hydroxy-2-methyl-2-dimethoxymethyl-3,4-dihydro-2H-1-benzopyran is penetrated through the cornea and then delivered to the retina. Rats (8 weeks old) were used in the test; and the eye drop formulation (50 μl) prepared in the following Formulation Example 1 was dropped on each rat's eye.

level in Aqueous humor ([1]; 30 minutes): 1250 ng/mL
level in Retina ([1]; 30 minutes): 846 ng/mL
level in Vitreous humor ([1]; 30 minutes): 195 ng/mL
level in Aqueous humor ([1]; 120 minutes): 827 ng/mL
level in Plasma ([1]; 120 minutes): 0.9 ng/mL
level in Retina ([1]; 120 minutes): 225 ng/mL
level in Vitreous humor ([1]; 120 minutes): 194 ng/mL
SMILES: COC(OC)[C@]1(C)Oc2ccc(N)cc2[C@H](N(Cc2ncc[nH]2)c2ccc(Cl)cc2)[C@H]1O [KR-31831, (2R,3R,4S)-6-amino-4-[N-(4-chlorophenyl)-N-(1H-imidazol-2-ylmethyl)amino]-3-hydroxy-2-methyl-2-dimethoxymethyl-3,4-dihydro-2H-1-benzopyran]
FLK-1 expression in the cornea (control group 100%) (VEGF receptor 2 (FLK-1)): about 30%
fluorescence intensity at laser-induced damage site (surrounding vessels = 100) (retinal angiogenesis; 0.1 mg/ml, VI (10 μl into the vitreous humor)): 53±2.8
fluorescence intensity at laser-induced damage site (surrounding vessels = 100) (retinal angiogenesis; 0.3 mg/ml, VI (10 μl into the vitreous humor)): 45±3.1
fluorescence intensity at laser-induced damage site (surrounding vessels = 100) (retinal angiogenesis; 25 mg/kg, IP (intraperitoneal)): 51±5
